Columns and labels:
Format in all cases: in vivo
Scirpus juncoides [1] = test: Test Example 1: herbicidal effect test by treatment of rice paddy soil (immediately after seeding); conditions: 120 g/10a active ingredient, dry weight vs untreated area, 14 days after treatment
Protocol: (§1) Herbicidal Effect Test by Treatment of Rice Paddy Soil
(§2) Wagner pots with an area of 1/10000 ares were filled with a paddy soil, and after adding water, a compound fertilizer (N:P:K=17:17:17) was added, followed by soil puddling. Then, Echinochloa crus-galli, broad leaf weeds (Lindernia pyxidaria and Monochoria vaginalis) and Scirpus juncoides, 30 seeds each, were sown in a depth of 0 to 1 cm. Water was poured immediately after seeding, and the water depth was kept at about 3 cm. The subsequent management was conducted in a glass greenhouse. Immediately after that, emulsions prepared using the compounds in Table 3 below according to Formulation Example 5 were diluted with water, and a certain amount of the water-diluted agent solutions were dropped. The converted amount of the applied active ingredient corresponded to 120 g per 10 ares.
(§3) This test was conducted in a double system per one agent solution concentration area, and the herbicidal rates (%) were determined by the following equation (Math. 1) on 14 days after the treatment with the agents. Herbicidal Rate (%)={1-(Average Dry Weight (g) of Plant of Treated Area)/(Average Dry Weight (g) of Plant of Untreated Area)}×100 [Math. 1]
(§4) The compound numbers in Table 3 are the same as those in Table 1 and Table 2 above.

[2] = test system: broad leaf weeds (Lindernia pyxidaria and Monochoria vaginalis); test: as above; conditions: 120 g/10a active ingredient, dry weight vs untreated area, 14 days after treatment
Protocol: as §1, §2, §3, §4

Echinochloa crus-galli [3] = test: as above; conditions: 120 g/10a active ingredient, dry weight vs untreated area, 14 days after treatment
Protocol: as §1, §2, §3, §4

Scirpus juncoides [4] = test: Test Example 2: herbicidal effect test by treatment during growing period in paddy rice cultivation (seven days after seeding); conditions: 120 g/10a active ingredient, assessed 14 days after treatment, dry weight vs untreated area
Protocol: as §3
(§5) Herbicidal Effect Test by Treatment During Growing Period in Paddy Rice Cultivation
as §2, with “was mixed,” for “was added,”, “greenhouse. Emulsions” for “greenhouse. Immediately after that, emulsions”, “Table 4” for “Table 3”, “with water seven days after seeding,” for “with water,”, “ares. The test was conducted in a double system per one agent solution concentration area, and the herbicidal rates (%) were determined by the equation (Math. 1) on 14 days after the treatment with the agents. […] The compound numbers in Table 4 are the same as those in Table 1 and Table 2 above.” for “ares.”

[5] = test system: broad leaf weeds (Lindernia pyxidaria and Monochoria vaginalis); test: as above; conditions: 120 g/10a active ingredient, assessed 14 days after treatment, dry weight vs untreated area
Protocol: as §3, §5
as §2, with “was mixed,” for “was added,”, “greenhouse. Emulsions” for “greenhouse. Immediately after that, emulsions”, “Table 4” for “Table 3”, “with water seven days after seeding,” for “with water,”, “ares. The test was conducted in a double system per one agent solution concentration area, and the herbicidal rates (%) were determined by the equation (Math. 1) on 14 days after the treatment with the agents. […] The compound numbers in Table 4 are the same as those in Table 1 and Table 2 above.” for “ares.”

Echinochloa crus-galli [6] = test: as above; conditions: 120 g/10a active ingredient, assessed 14 days after treatment, dry weight vs untreated area
Protocol: as §3, §5
as §2, with “was mixed,” for “was added,”, “greenhouse. Emulsions” for “greenhouse. Immediately after that, emulsions”, “Table 4” for “Table 3”, “with water seven days after seeding,” for “with water,”, “ares. The test was conducted in a double system per one agent solution concentration area, and the herbicidal rates (%) were determined by the equation (Math. 1) on 14 days after the treatment with the agents. […] The compound numbers in Table 4 are the same as those in Table 1 and Table 2 above.” for “ares.”

## CCC(C)Cn1oc(=O)c(Cc2ccccc2N(C(=O)OCc2ccccc2)S(=O)(=O)C(F)(F)F)c1C (single isomer, unassigned) [1-788 (TLC top)]
Scirpus juncoides [1]
  Herbicidal rate (%) Scirpus juncoides: 80%
[2]
  Herbicidal rate (%) Lindernia pyxidaria: 60%
  Herbicidal rate (%) Monochoria vaginalis: 50%
Echinochloa crus-galli [3]
  Herbicidal rate (%) Echinochloa crus-galli: 80%
Scirpus juncoides [4]
  Herbicidal rate (%) Scirpus juncoides: 50%
[5]
  Herbicidal rate (%) Lindernia pyxidaria: 40%
  Herbicidal rate (%) Monochoria vaginalis: 40%
Echinochloa crus-galli [6]
  Herbicidal rate (%) Echinochloa crus-galli: 40%

## Cc1c(Cc2cc(F)ccc2NS(=O)(=O)C(F)(F)F)c(=O)on1Cc1ccccc1 [Compound 1-31]
Scirpus juncoides [1]
  Herbicidal rate (%) Scirpus juncoides: 90%
[2]
  Herbicidal rate (%) Lindernia pyxidaria: 90%
  Herbicidal rate (%) Monochoria vaginalis: 80%
Echinochloa crus-galli [3]
  Herbicidal rate (%) Echinochloa crus-galli: 90%
Scirpus juncoides [4]
  Herbicidal rate (%) Scirpus juncoides: 70%
[5]
  Herbicidal rate (%) Lindernia pyxidaria: 60%
  Herbicidal rate (%) Monochoria vaginalis: 80%
Echinochloa crus-galli [6]
  Herbicidal rate (%) Echinochloa crus-galli: 50%

## Cc1c(Cc2c(Cl)cccc2NS(=O)(=O)C(F)(F)F)c(=O)on1C(C)C [Compound 1-46]
Scirpus juncoides [1]
  Herbicidal rate (%) Scirpus juncoides: 90%
[2]
  Herbicidal rate (%) Lindernia pyxidaria: 80%
  Herbicidal rate (%) Monochoria vaginalis: 80%
Echinochloa crus-galli [3]
  Herbicidal rate (%) Echinochloa crus-galli: 60%
Scirpus juncoides [4]
  Herbicidal rate (%) Scirpus juncoides: 60%
[5]
  Herbicidal rate (%) Lindernia pyxidaria: 40%
  Herbicidal rate (%) Monochoria vaginalis: 40%
Echinochloa crus-galli [6]
  Herbicidal rate (%) Echinochloa crus-galli: 40%

## Cc1c(Cc2c(Cl)cccc2N(S(=O)(=O)C(F)(F)F)S(=O)(=O)C(F)(F)F)c(=O)on1C(C)C [Compound 1-47]
Scirpus juncoides [1]
  Herbicidal rate (%) Scirpus juncoides: 80%
[2]
  Herbicidal rate (%) Lindernia pyxidaria: 70%
  Herbicidal rate (%) Monochoria vaginalis: 70%
Echinochloa crus-galli [3]
  Herbicidal rate (%) Echinochloa crus-galli: 40%
Scirpus juncoides [4]
  Herbicidal rate (%) Scirpus juncoides: 70%
[5]
  Herbicidal rate (%) Lindernia pyxidaria: 40%
  Herbicidal rate (%) Monochoria vaginalis: 40%
Echinochloa crus-galli [6]
  Herbicidal rate (%) Echinochloa crus-galli: 40%

## CC(C)c1c(Cc2ccccc2NS(=O)(=O)C(F)(F)F)c(=O)on1C(C)C [Compound 1-68]
Scirpus juncoides [1]
  Herbicidal rate (%) Scirpus juncoides: 90%
[2]
  Herbicidal rate (%) Lindernia pyxidaria: 90%
  Herbicidal rate (%) Monochoria vaginalis: 80%
Echinochloa crus-galli [3]
  Herbicidal rate (%) Echinochloa crus-galli: 80%
Scirpus juncoides [4]
  Herbicidal rate (%) Scirpus juncoides: 80%
[5]
  Herbicidal rate (%) Lindernia pyxidaria: 70%
  Herbicidal rate (%) Monochoria vaginalis: 80%
Echinochloa crus-galli [6]
  Herbicidal rate (%) Echinochloa crus-galli: 40%

## CC(C)c1c(Cc2ccccc2N(S(=O)(=O)C(F)(F)F)S(=O)(=O)C(F)(F)F)c(=O)on1C(C)C [Compound 1-69]
Scirpus juncoides [1]
  Herbicidal rate (%) Scirpus juncoides: 90%
[2]
  Herbicidal rate (%) Lindernia pyxidaria: 70%
  Herbicidal rate (%) Monochoria vaginalis: 70%
Echinochloa crus-galli [3]
  Herbicidal rate (%) Echinochloa crus-galli: 80%
Scirpus juncoides [4]
  Herbicidal rate (%) Scirpus juncoides: 60%
[5]
  Herbicidal rate (%) Lindernia pyxidaria: 40%
  Herbicidal rate (%) Monochoria vaginalis: 60%
Echinochloa crus-galli [6]
  Herbicidal rate (%) Echinochloa crus-galli: 60%

## Cn1oc(=O)c(Cc2ccccc2NS(=O)(=O)C(F)(F)F)c1C(F)(F)F [Compound 1-78]
Scirpus juncoides [1]
  Herbicidal rate (%) Scirpus juncoides: 70%
[2]
  Herbicidal rate (%) Lindernia pyxidaria: 50%
  Herbicidal rate (%) Monochoria vaginalis: 50%
Echinochloa crus-galli [3]
  Herbicidal rate (%) Echinochloa crus-galli: 40%
Scirpus juncoides [4]
  Herbicidal rate (%) Scirpus juncoides: 80%
[5]
  Herbicidal rate (%) Lindernia pyxidaria: 40%
  Herbicidal rate (%) Monochoria vaginalis: 60%
Echinochloa crus-galli [6]
  Herbicidal rate (%) Echinochloa crus-galli: 40%

## CC(C)n1oc(=O)c(Cc2ccccc2N(S(=O)(=O)C(F)(F)F)S(=O)(=O)C(F)(F)F)c1C1CC1 [Compound 1-84]
Scirpus juncoides [1]
  Herbicidal rate (%) Scirpus juncoides: 80%
[2]
  Herbicidal rate (%) Lindernia pyxidaria: 70%
  Herbicidal rate (%) Monochoria vaginalis: 70%
Echinochloa crus-galli [3]
  Herbicidal rate (%) Echinochloa crus-galli: 80%
Scirpus juncoides [4]
  Herbicidal rate (%) Scirpus juncoides: 70%
[5]
  Herbicidal rate (%) Lindernia pyxidaria: 40%
  Herbicidal rate (%) Monochoria vaginalis: 40%
Echinochloa crus-galli [6]
  Herbicidal rate (%) Echinochloa crus-galli: 40%

## C=CCn1oc(=O)c(Cc2ccccc2NS(=O)(=O)C(F)(F)F)c1C [Compound 1-135]
Scirpus juncoides [1]
  Herbicidal rate (%) Scirpus juncoides: 90%
[2]
  Herbicidal rate (%) Lindernia pyxidaria: 90%
  Herbicidal rate (%) Monochoria vaginalis: 60%
Echinochloa crus-galli [3]
  Herbicidal rate (%) Echinochloa crus-galli: 90%
Scirpus juncoides [4]
  Herbicidal rate (%) Scirpus juncoides: 90%
[5]
  Herbicidal rate (%) Lindernia pyxidaria: 40%
  Herbicidal rate (%) Monochoria vaginalis: 60%
Echinochloa crus-galli [6]
  Herbicidal rate (%) Echinochloa crus-galli: 80%

## Cc1c(Cc2ccccc2NS(=O)(=O)C(F)(F)F)c(=O)on1CCOC(C)C [Compound 1-155]
Scirpus juncoides [1]
  Herbicidal rate (%) Scirpus juncoides: 80%
[2]
  Herbicidal rate (%) Lindernia pyxidaria: 60%
  Herbicidal rate (%) Monochoria vaginalis: 60%
Echinochloa crus-galli [3]
  Herbicidal rate (%) Echinochloa crus-galli: 90%
Scirpus juncoides [4]
  Herbicidal rate (%) Scirpus juncoides: 80%
[5]
  Herbicidal rate (%) Lindernia pyxidaria: 60%
  Herbicidal rate (%) Monochoria vaginalis: 60%
Echinochloa crus-galli [6]
  Herbicidal rate (%) Echinochloa crus-galli: 100%

## CSCCCn1oc(=O)c(Cc2ccccc2NS(=O)(=O)C(F)(F)F)c1C [Compound 1-167]
Scirpus juncoides [1]
  Herbicidal rate (%) Scirpus juncoides: 90%
[2]
  Herbicidal rate (%) Lindernia pyxidaria: 90%
  Herbicidal rate (%) Monochoria vaginalis: 80%
Echinochloa crus-galli [3]
  Herbicidal rate (%) Echinochloa crus-galli: 100%
Scirpus juncoides [4]
  Herbicidal rate (%) Scirpus juncoides: 90%
[5]
  Herbicidal rate (%) Lindernia pyxidaria: 90%
  Herbicidal rate (%) Monochoria vaginalis: 90%
Echinochloa crus-galli [6]
  Herbicidal rate (%) Echinochloa crus-galli: 90%

## Cc1c(Cc2ccccc2NS(=O)(=O)C(F)(F)F)c(=O)on1Cc1ccccc1F [Compound 1-181]
Scirpus juncoides [1]
  Herbicidal rate (%) Scirpus juncoides: 90%
[2]
  Herbicidal rate (%) Lindernia pyxidaria: 100%
  Herbicidal rate (%) Monochoria vaginalis: 90%
Echinochloa crus-galli [3]
  Herbicidal rate (%) Echinochloa crus-galli: 90%
Scirpus juncoides [4]
  Herbicidal rate (%) Scirpus juncoides: 90%
[5]
  Herbicidal rate (%) Lindernia pyxidaria: 80%
  Herbicidal rate (%) Monochoria vaginalis: 90%
Echinochloa crus-galli [6]
  Herbicidal rate (%) Echinochloa crus-galli: 50%

## Cc1c(Cc2ccccc2NS(=O)(=O)C(F)(F)F)c(=O)on1Cc1cccc(F)c1 [Compound 1-182]
Scirpus juncoides [1]
  Herbicidal rate (%) Scirpus juncoides: 100%
[2]
  Herbicidal rate (%) Lindernia pyxidaria: 100%
  Herbicidal rate (%) Monochoria vaginalis: 90%
Echinochloa crus-galli [3]
  Herbicidal rate (%) Echinochloa crus-galli: 90%
Scirpus juncoides [4]
  Herbicidal rate (%) Scirpus juncoides: 70%
[5]
  Herbicidal rate (%) Lindernia pyxidaria: 60%
  Herbicidal rate (%) Monochoria vaginalis: 60%
Echinochloa crus-galli [6]
  Herbicidal rate (%) Echinochloa crus-galli: 40%

## Cc1c(Cc2ccccc2NS(=O)(=O)C(F)(F)F)c(=O)on1Cc1ccc(Cl)cc1 [Compound 1-186]
Scirpus juncoides [1]
  Herbicidal rate (%) Scirpus juncoides: 90%
[2]
  Herbicidal rate (%) Lindernia pyxidaria: 100%
  Herbicidal rate (%) Monochoria vaginalis: 100%
Echinochloa crus-galli [3]
  Herbicidal rate (%) Echinochloa crus-galli: 90%
Scirpus juncoides [4]
  Herbicidal rate (%) Scirpus juncoides: 80%
[5]
  Herbicidal rate (%) Lindernia pyxidaria: 80%
  Herbicidal rate (%) Monochoria vaginalis: 80%
Echinochloa crus-galli [6]
  Herbicidal rate (%) Echinochloa crus-galli: 50%

## Cc1c(Cc2ccccc2NS(=O)(=O)C(F)(F)F)c(=O)on1Cc1ccc(Br)cc1 [Compound 1-187]
Scirpus juncoides [1]
  Herbicidal rate (%) Scirpus juncoides: 80%
[2]
  Herbicidal rate (%) Lindernia pyxidaria: 90%
  Herbicidal rate (%) Monochoria vaginalis: 90%
Echinochloa crus-galli [3]
  Herbicidal rate (%) Echinochloa crus-galli: 90%
Scirpus juncoides [4]
  Herbicidal rate (%) Scirpus juncoides: 70%
[5]
  Herbicidal rate (%) Lindernia pyxidaria: 70%
  Herbicidal rate (%) Monochoria vaginalis: 80%
Echinochloa crus-galli [6]
  Herbicidal rate (%) Echinochloa crus-galli: 40%

## Cc1c(Cc2ccccc2NS(=O)(=O)C(F)(F)F)c(=O)on1Cc1ccc(C#N)cc1 [Compound 1-189]
Scirpus juncoides [1]
  Herbicidal rate (%) Scirpus juncoides: 90%
[2]
  Herbicidal rate (%) Lindernia pyxidaria: 100%
  Herbicidal rate (%) Monochoria vaginalis: 90%
Echinochloa crus-galli [3]
  Herbicidal rate (%) Echinochloa crus-galli: 90%
Scirpus juncoides [4]
  Herbicidal rate (%) Scirpus juncoides: 80%
[5]
  Herbicidal rate (%) Lindernia pyxidaria: 80%
  Herbicidal rate (%) Monochoria vaginalis: 80%
Echinochloa crus-galli [6]
  Herbicidal rate (%) Echinochloa crus-galli: 60%

## Cc1c(Cc2ccccc2N(S(=O)(=O)C(F)(F)F)S(=O)(=O)C(F)(F)F)c(=O)on1Cc1cccc(F)c1 [Compound 1-1013]
Scirpus juncoides [1]
  Herbicidal rate (%) Scirpus juncoides: 90%
[2]
  Herbicidal rate (%) Lindernia pyxidaria: 90%
  Herbicidal rate (%) Monochoria vaginalis: 90%
Echinochloa crus-galli [3]
  Herbicidal rate (%) Echinochloa crus-galli: 40%

## Cc1c(Cc2ccccc2N(S(=O)(=O)C(F)(F)F)S(=O)(=O)C(F)(F)F)c(=O)on1Cc1ccc(C(F)(F)F)cc1 [Compound 1-1021]
Scirpus juncoides [1]
  Herbicidal rate (%) Scirpus juncoides: 60%
[2]
  Herbicidal rate (%) Lindernia pyxidaria: 40%
  Herbicidal rate (%) Monochoria vaginalis: 40%
Echinochloa crus-galli [3]
  Herbicidal rate (%) Echinochloa crus-galli: 40%

## Cc1c(Cc2ccccc2N(S(=O)(=O)C(F)(F)F)S(=O)(=O)C(F)(F)F)c(=O)on1Cc1ccc(F)c(Cl)c1 [Compound 1-1029]
Scirpus juncoides [1]
  Herbicidal rate (%) Scirpus juncoides: 60%
[2]
  Herbicidal rate (%) Lindernia pyxidaria: 60%
  Herbicidal rate (%) Monochoria vaginalis: 60%
Echinochloa crus-galli [3]
  Herbicidal rate (%) Echinochloa crus-galli: 60%
